Measurements published in the supplement of paper PMC10307832.

compound: CC(C)=CC[C@@H](O)C1=CC(=O)c2c(O)ccc(O)c2C1=O [Shikonin] + CC(=O)Nc1cccc(-n2c(=O)n(C3CC3)c(=O)c3c(Nc4ccc(I)cc4F)n(C)c(=O)c(C)c32)c1 [Trametinib] (partner 0.02 µM); experiment: relative viability (nuclei count vs DMSO), 5 days (fraction); higher = more cells survive; settings: first compound 0.01 µM
Outline: (§1)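 Five library-drug doses in √10 steps were combined with a fixed anchor-drug dose, or a single drug was given alone, by pin tool to lung cancer cell lines in 1536-well plates the day after seeding. Nuclei were stained and counted after 5 days. Relative viability is the nuclei count in treated wells over that in vehicle wells, taken as the median of duplicate plates.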

Cell Line | relative viability
HCC-78 | 0.773
NCI-H441 | 0.468
LCLC-97TM1 | 0.179
NCI-H2023 | 0.546
A-427 | 0.776
NCI-H460 | 0.159
NCI-H838 | 0.619
NCI-H1734 | 0.664
NCI-H596 | 0.94
NCI-H2405 | 0.622
201T | 0.724
NCI-H1915 | 0.308
HCC-827 | 0.561
LXF-289 | 0.668
NCI-H2347 | 0.272
NCI-H661 | 0.559
NCI-H1651 | 0.882

Cell Line | relative viability
EPLC-272H | 0.286
NCI-H23 | 0.356
NCI-H1792 | 0.476
NCI-H1355 | 0.405
NCI-H322M | 0.498
NCI-H1437 | 0.539
NCI-H1755 | 0.703
NCI-H2085 | 0.601
HCC-15 | 0.389
RERF-LC-KJ | 0.97
EKVX | 0.326
LC-2-ad | 0.962
NCI-H1975 | 0.275
SW 1573 | 0.615
NCI-H727 | 0.351
SK-LU-1 | 0.46

same assay, conditions: first compound 0.1 µM

Cell Line | relative viability
HCC-78 | 0.906
NCI-H441 | 0.487
LCLC-97TM1 | 0.237
NCI-H2023 | 0.534
A-427 | 0.816
NCI-H460 | 0.164
NCI-H838 | 0.505
NCI-H1734 | 0.771
NCI-H596 | 0.827
NCI-H2405 | 0.725
201T | 0.777
NCI-H1915 | 0.31
HCC-827 | 0.496
LXF-289 | 0.756
NCI-H2347 | 0.273
NCI-H661 | 0.536
NCI-H1651 | 0.873

Cell Line | relative viability
EPLC-272H | 0.335
NCI-H23 | 0.395
NCI-H1792 | 0.327
NCI-H1355 | 0.42
NCI-H322M | 0.459
NCI-H1437 | 0.433
NCI-H1755 | 0.812
NCI-H2085 | 0.502
HCC-15 | 0.35
RERF-LC-KJ | 0.728
EKVX | 0.336
LC-2-ad | 1.02
NCI-H1975 | 0.367
SW 1573 | 0.502
NCI-H727 | 0.375
SK-LU-1 | 0.485

same assay, conditions: first compound 0.3162 µM

Cell Line | relative viability
HCC-78 | 0.828
NCI-H441 | 0.528
LCLC-97TM1 | 0.2
NCI-H2023 | 0.64
A-427 | 0.821
NCI-H460 | 0.131
NCI-H838 | 0.551
NCI-H1734 | 0.747
NCI-H596 | 0.841
NCI-H2405 | 0.653
201T | 0.75
NCI-H1915 | 0.309
HCC-827 | 0.563
LXF-289 | 0.712
NCI-H2347 | 0.279
NCI-H661 | 0.505
NCI-H1651 | 0.882

Cell Line | relative viability
EPLC-272H | 0.265
NCI-H23 | 0.472
NCI-H1792 | 0.424
NCI-H1355 | 0.424
NCI-H322M | 0.513
NCI-H1437 | 0.458
NCI-H1755 | 0.756
NCI-H2085 | 0.574
HCC-15 | 0.414
RERF-LC-KJ | 0.991
EKVX | 0.389
LC-2-ad | 1.02
NCI-H1975 | 0.33
SW 1573 | 0.502
NCI-H727 | 0.389
SK-LU-1 | 0.513

same assay, conditions: first compound 1 µM

Cell Line | relative viability
HCC-78 | 0.734
NCI-H441 | 0.451
LCLC-97TM1 | 0.202
NCI-H2023 | 0.56
A-427 | 0.779
NCI-H460 | 0.135
NCI-H838 | 0.564
NCI-H1734 | 0.732
NCI-H596 | 0.839
NCI-H2405 | 0.573
201T | 0.707
NCI-H1915 | 0.298
HCC-827 | 0.517
LXF-289 | 0.701
NCI-H2347 | 0.249
NCI-H661 | 0.576
NCI-H1651 | 0.83

Cell Line | relative viability
EPLC-272H | 0.244
NCI-H23 | 0.42
NCI-H1792 | 0.553
NCI-H1355 | 0.395
NCI-H322M | 0.564
NCI-H1437 | 0.504
NCI-H1755 | 0.742
NCI-H2085 | 0.513
HCC-15 | 0.418
RERF-LC-KJ | 0.743
EKVX | 0.398
LC-2-ad | 0.945
NCI-H1975 | 0.321
SW 1573 | 0.112
NCI-H727 | 0.409
SK-LU-1 | 0.449

compound: CC(C)=CC[C@@H](O)C1=CC(=O)c2c(O)ccc(O)c2C1=O [Shikonin] + CC(C)C[C@H](NC(=O)[C@H](Cc1ccccc1)NC(=O)c1cnccn1)B(O)O [Bortezomib] (partner 0.002 µM); experiment: as above; settings: first compound 0.01 µM
Outline: as §1

Cell Line | relative viability
HCC-78 | 0.572
NCI-H441 | 0.581
LCLC-97TM1 | 0.331
NCI-H2023 | 1.05
A-427 | 1.07
NCI-H460 | 1.35
NCI-H838 | 0.992
NCI-H1734 | 1.09
NCI-H596 | 1.06
NCI-H2405 | 0.963
201T | 1.12
NCI-H1915 | 1.01
HCC-827 | 1.11
LXF-289 | 1.1
NCI-H2347 | 1.09
NCI-H661 | 0.835
NCI-H1651 | 0.986

Cell Line | relative viability
EPLC-272H | 0.76
NCI-H23 | 1.11
NCI-H1792 | 1.14
NCI-H1355 | 1.24
NCI-H322M | 1.14
NCI-H1437 | 0.643
NCI-H1755 | 0.978
NCI-H2085 | 1.08
HCC-15 | 1.16
RERF-LC-KJ | 1.08
EKVX | 0.995
LC-2-ad | 1.08
NCI-H1975 | 0.273
SW 1573 | 1.12
NCI-H727 | 0.862
SK-LU-1 | 1.14

same assay, conditions: first compound 0.1 µM

Cell Line | relative viability
HCC-78 | 0.474
NCI-H441 | 0.666
LCLC-97TM1 | 0.721
NCI-H2023 | 1.21
A-427 | 1.17
NCI-H460 | 0.78
NCI-H838 | 0.727
NCI-H1734 | 0.999
NCI-H596 | 1.01
NCI-H2405 | 0.974
201T | 1.23
NCI-H1915 | 1.15
HCC-827 | 1.06
LXF-289 | 1.03
NCI-H2347 | 1.11
NCI-H661 | 0.818
NCI-H1651 | 1.06

Cell Line | relative viability
EPLC-272H | 0.923
NCI-H23 | 0.953
NCI-H1792 | 0.858
NCI-H1355 | 1.25
NCI-H322M | 1.32
NCI-H1437 | 0.562
NCI-H1755 | 1.1
NCI-H2085 | 1.02
HCC-15 | 1.15
RERF-LC-KJ | 1.19
EKVX | 1.81
LC-2-ad | 1.05
NCI-H1975 | 0.365
SW 1573 | 1.39
NCI-H727 | 0.933
SK-LU-1 | 0.984

same assay, conditions: first compound 0.3162 µM

Cell Line | relative viability
HCC-78 | 0.607
NCI-H441 | 0.549
LCLC-97TM1 | 0.814
NCI-H2023 | 1.05
A-427 | 0.979
NCI-H460 | 1.03
NCI-H838 | 0.842
NCI-H1734 | 0.819
NCI-H596 | 0.948
NCI-H2405 | 1.01
201T | 1.14
NCI-H1915 | 1.06
HCC-827 | 1.03
LXF-289 | 1
NCI-H2347 | 0.848
NCI-H661 | 0.734
NCI-H1651 | 0.948

Cell Line | relative viability
EPLC-272H | 0.957
NCI-H23 | 1.13
NCI-H1792 | 1.12
NCI-H1355 | 1.22
NCI-H322M | 1.26
NCI-H1437 | 0.527
NCI-H1755 | 1.11
NCI-H2085 | 1.01
HCC-15 | 1.08
RERF-LC-KJ | 1.28
EKVX | 1.28
LC-2-ad | 1.07
NCI-H1975 | 0.452
SW 1573 | 1.06
NCI-H727 | 0.973
SK-LU-1 | 1.34

same assay, conditions: first compound 1 µM

Cell Line | relative viability
HCC-78 | 0.552
NCI-H441 | 0.603
LCLC-97TM1 | 0.631
NCI-H2023 | 0.97
A-427 | 1.05
NCI-H460 | 1.3
NCI-H838 | 0.685
NCI-H1734 | 0.909
NCI-H596 | 1.29
NCI-H2405 | 1
201T | 1.15
NCI-H1915 | 1.06
HCC-827 | 1.1
LXF-289 | 1.04
NCI-H2347 | 1.23
NCI-H661 | 0.769
NCI-H1651 | 0.928

Cell Line | relative viability
EPLC-272H | 0.923
NCI-H23 | 1.13
NCI-H1792 | 1.04
NCI-H1355 | 1.23
NCI-H322M | 1.33
NCI-H1437 | 0.46
NCI-H1755 | 0.98
NCI-H2085 | 0.922
HCC-15 | 1.22
RERF-LC-KJ | 0.986
EKVX | 1.18
LC-2-ad | 1.02
NCI-H1975 | 0.363
SW 1573 | 0.955
NCI-H727 | 0.755
SK-LU-1 | 1.58

compound: CC(C)=CC[C@@H](O)C1=CC(=O)c2c(O)ccc(O)c2C1=O [Shikonin] + Nc1ncn([C@H]2C[C@H](O)[C@@H](CO)O2)c(=O)n1 [Decitabine] (partner 2 µM); experiment: as above; settings: first compound 0.01 µM
Outline: as §1

Cell Line | relative viability
HCC-78 | 0.71
NCI-H441 | 0.249
LCLC-97TM1 | 0.257
NCI-H2023 | 0.201
A-427 | 0.575
NCI-H460 | 0.446
NCI-H838 | 0.476
NCI-H1734 | 0.475
NCI-H596 | 1.08
NCI-H2405 | 0.827
201T | 0.847
NCI-H1915 | 0.271
HCC-827 | 0.326
LXF-289 | 0.356
